Reference: patent US20260185980A1, “METHOD OF PREVENTING AND/OR REDUCING METASTASIS OF TUMOR CELLS, PREVENTING OR REDUCING SENESCENCE, INHIBITING DIFFERENTIATION AND OF REDUCING INFLAMMATION” (Albert-Ludwigs-Universitaet, priority 2022, published 2026)
Peptide text beside a SMILES is read from it. * marks the point of attachment. Cbz = O=C(OCc1ccccc1)*; CH2F = FC*

Experiments:
CAD = target: T1, CAD (Homo sapiens, UniProt O76075); assay: Assay A: Inhibition of the CAD-dependent DNA-damage response (DDR), γH2AX Western blot; format: cell-based; settings: HeLa229-Tir1-iCAD-mAID-GFP cells, compound 10 μM pre-incubated 1 hour, auxin 5 μM 4 hours
T1 construct: endogenous in cells; host or cells: HeLa229-Tir1-iCAD-mAID-GFP cells
T1 sequence (O76075 1-338): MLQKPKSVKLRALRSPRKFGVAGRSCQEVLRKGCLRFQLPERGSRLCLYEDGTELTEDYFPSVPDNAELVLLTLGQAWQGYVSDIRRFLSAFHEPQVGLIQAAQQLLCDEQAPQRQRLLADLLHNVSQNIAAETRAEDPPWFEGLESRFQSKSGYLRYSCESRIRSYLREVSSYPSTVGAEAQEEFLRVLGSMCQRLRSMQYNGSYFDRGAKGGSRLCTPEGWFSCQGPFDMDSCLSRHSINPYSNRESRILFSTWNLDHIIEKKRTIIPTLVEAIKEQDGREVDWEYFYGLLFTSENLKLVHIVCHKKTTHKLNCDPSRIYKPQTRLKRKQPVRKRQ
Protocol: Cells were seeded, pre-incubated with the individual compounds and treated with auxin. The DDR (a consequence of CAD-activity) was measured by Western blotting for the marker γH2AX. […] Such preferred compounds are: MB4, MB26; MB33; MB37; CBN16; CBN17; CBN40; CBN62; CBN65; CBN66; CBN68; CD9 and CD22.
FIG. 11 Confirmation of CAD-inhibition: auxin-dependent DDR. HeLa229-Tir1-iCAD-mAID-GFP cells were seeded on a 48-well plate (50,000 cells/well). 24 hours later, cells were pre-incubated (or not) with the indicated compounds (Comp, 10 μM) for 1 hour, followed by auxin treatment [5 μM] for 4 hours. Cells were lysed in Laemmli buffer and lysates were loaded onto SDS-PAGE followed by Western blotting against the indicated proteins. The DNA damage marker γH2AX was used as an indicator of CAD activity. The two left lanes of each gel are negative and positive controls (without and with auxin but without compound; instead, DMSO was used as solvent control). Compounds are indicated at the top.

caspase-activated CAD = target: T2, caspase-activated CAD (Homo sapiens, UniProt O76075); assay: Assay B: Inhibition of caspase-activated CAD (ABT-737 plus S63845, γH2AX); format: cell-based; settings: HeLa229-CTRL3 cells, compound pre-treatment 1 hour, ABT-737 50 nM plus S63845 250 nM 2.5 hours
T2 construct: endogenous in cells; host or cells: HeLa229-CTRL3 cells (LentiCRISPRV2_puro with non-targeted gRNA)
T2 sequence (O76075 1-338): T1 sequence (O76075 1-338)
Protocol: FIG. 12 Activity of compounds against caspase-activated CAD A, HeLa229-CTRL3 cells (transduced with a LentiCRISPRV2_puro virus encoding a non-targeted gRNA) or Hela229 cells transduced with a CAD-targeted LentiCrisprV2 virus (resulting in CAD-deficient cells (CAD KO)) were seeded as described in FIG. 11 and stimulated with […] ABT-737 [50 nM] plus S63845 [250 nM] for 2.5 hours the next day. Subsequent analysis of the cells was performed as described in FIG. 11.
FIG. 12B, HeLa229-CTRL3 cells were seeded as in A and pre-treated (or not) with the indicated compounds and concentrations (Comp) for 1 hour, followed by treatment with ABT-737 plus […] for 2.5 hours. Proteins were detected as described in FIG. 11.
While in the screening we activated CAD with auxin-induced degradation of its inhibitor, CAD is physiologically activated by caspases. […] Test compounds were added 1 h previously. The activity of CAD was measured by the DDR as above (γH2AX). […] The compounds that will be used to inhibit CAD are shown in boxes. Such preferred compounds are: CBN16; CBN17; CBN62; CBN65; CBN66; CBN68; MB4; CD9; CD22 and MB26.

cancer cells = assay: Aggressive cancer growth in vitro (migration, invasion through a basement membrane, colony formation on soft agar); format: cell-based; settings: caspase-inhibition by the pan-caspase-inhibitor
Description: A, migratory activity of cells with or without CAD (scratch assay). Percentages of the area closed upon scratch are given. In this assay, a monolayer of cells is mechanically scratched, and the cells migrate back to fill the gap. The speed with which they migrate is a measure of their migratory capacity.
B-D invasion through a basement membrane (number of cells are given that had invaded).
E, colony formation in soft agar (number of colonies). The invasion assay uses a basement membrane in a culture dish. The cells are seeded on top of the membrane, and after a predetermined time (here: 24 h), the number of cells at the bottom of the membrane is determined. This is a measure of the capacity of the cells to invade tissue. Colony formation measures a capacity also termed ‘anchorage-independent growth’. It is a particular capacity of metastatic cells to be able to grow to colonies without support from other cells of solid support (as in a plastic dish). Individual cells are seeded in soft agar to immobilize them and to test whether the single cells can grow and form colonies, a feature of metastatic cells. The number of colonies formed is then measured.
The cell lines and conditions were described in the legend to FIG. 1. zVAD, caspase-inhibitor zVAD-fmk. Ctrl., control cells; the other cell lines are labelled according to their genetic modification (gene deletion; Bcl-XL-overexpression). […]

HeLa cells = assay: Chromosomal missegregation (CIN) and micronuclei in cancer cells; format: cell-based, human; settings: cells incubated for one day with caspase-inhibitor
Description: A, the various pictures of chromosomal missegregation/misalignment are shown as examples (left) and enumerated in HeLa cells (cervical carcinoma line; ctrl., control; CAD, lacking CAD; STING, lacking STING; STING is not relevant to this invention).
C, missegregation in HeLa cells with inhibition in the mitochondrial apoptosis apparatus. Symbols as in A. zVAD-fmk is a small molecule pan-caspase-inhibitor. Apaf-1 is an adapter protein of caspase-9 that is required for caspase-activation upon release of cytochrome c from mitochondria. Both Bax and Bak can directly release cytochrome c, and the presence of at least one of them is required for mitochondrial apoptosis. Bcl-XL is a mitochondrial protein that blocks the activation and activity of Bax and Bak and thereby inhibits apoptosis. […]
Metastasis is linked in the literature to chromosomal instability (CIN), most likely because DNA-ligands are generated that stimulate the cells. […] This is clear because cancer cells modified to lack CAD or components of the (CAD-activating) mitochondrial apoptosis apparatus, or where apoptosis signaling was blocked using a chemical caspase inhibitor (zVAD-fmk), all show reduced CIN (measured as chromosomal missegregation, for instance as chromatin-bridges in dividing cells) and numbers of MN (FIG. 1). […]

O=C1/C(=C/c2ccccn2)N2CCC1CC2 [CBN16, (2Z)-2-(pyridin-2-ylmethylidene)-1-azabicyclo[2.2.2]octan-3-one]
Inhibition of auxin-dependent DDR (γH2AX) (CAD): blocked the DDR
CAD-inhibitory activity against caspase-activated CAD (γH2AX) (caspase-activated CAD): CAD-inhibitory activity

CC(=O)Nc1nc([N+](=O)[O-])n(-c2ccccc2)n1 [CBN17, N-(5-nitro-1-phenyl-1,2,4-triazol-3-yl)acetamide]
Inhibition of auxin-dependent DDR (γH2AX) (CAD): blocked the DDR
CAD-inhibitory activity against caspase-activated CAD (γH2AX) (caspase-activated CAD): CAD-inhibitory activity

COc1cc(/C=C2/CCC/C(=C\c3ccc(O)c(OC)c3)C2=O)ccc1O [CBN40, (2E,6Z)-2,6-bis[(4-hydroxy-3-methoxyphenyl)methylidene]cyclo-hexan-1-one]
Inhibition of auxin-dependent DDR (γH2AX) (CAD): blocked the DDR

O=C(Cn1ncc(Cl)c(Cl)c1=O)Nc1ccc(N2CCCC2)cc1 [CBN62, 2-(4,5-dichloro-6-oxopyridazin-1-yl)-N-(4-pyrrolidin-1-ylphenyl)acetamide]
Inhibition of auxin-dependent DDR (γH2AX) (CAD): blocked the DDR
CAD-inhibitory activity against caspase-activated CAD (γH2AX) (caspase-activated CAD): CAD-inhibitory activity

O=C1NC(=S)NC(=O)C1=Cc1c2ccccc2cc2ccccc12 [CBN65, 5-(anthracen-9-ylmethylidene)-2-sulfanylidene-1,3-diazinane-4,6-dione]
Inhibition of auxin-dependent DDR (γH2AX) (CAD): blocked the DDR
CAD-inhibitory activity against caspase-activated CAD (γH2AX) (caspase-activated CAD): CAD-inhibitory activity

Cc1nn(Cc2ccc(Cl)c(Cl)c2)c(C)c1NC(=O)CCCS(=O)(=O)c1nc(-c2cccs2)cc(C(F)(F)F)n1 [CBN68, N-[1-[(3,4-dichlorophenyl)methyl]-3,5-dimethylpyrazol-4-yl]-4-[4-thiophen-2-yl-6-(trifluoromethyl)pyrimidin-2-yl]sulfonylbutanamide]
Inhibition of auxin-dependent DDR (γH2AX) (CAD): blocked the DDR
CAD-inhibitory activity against caspase-activated CAD (γH2AX) (caspase-activated CAD): CAD-inhibitory activity

Clc1ncnc2c1C(c1ccc(Br)cc1)c1c(Cl)ncnc1O2 [CD9, 9-(4-bromophenyl)-7,11-dichloro-2-oxa-4,6,12,14-tetrazatricyclo[8.4.0.0^3,8] tetradeca-1(10),3(8),4,6,11,13-hexaene]
Inhibition of auxin-dependent DDR (γH2AX) (CAD): blocked the DDR
CAD-inhibitory activity against caspase-activated CAD (γH2AX) (caspase-activated CAD): CAD-inhibitory activity

O=c1c(Cl)c(Cl)cnn1-c1ccccc1 [CD22, 4,5-dichloro-2-phenylpyridazin-3-one]
Inhibition of auxin-dependent DDR (γH2AX) (CAD): blocked the DDR
CAD-inhibitory activity against caspase-activated CAD (γH2AX) (caspase-activated CAD): CAD-inhibitory activity

O=[N+]([O-])c1ccc(C=Nc2cc(C(F)(F)F)ccc2N2CCOCC2)s1 [MB4, N-[2-morpholin-4-yl-5-(trifluoromethyl)phenyl]-1-(5-nitrothiophen-2-yl)methanimine]
Inhibition of auxin-dependent DDR (γH2AX) (CAD): blocked the DDR
CAD-inhibitory activity against caspase-activated CAD (γH2AX) (caspase-activated CAD): CAD-inhibitory activity

Cc1ccc(Sc2ccc([N+](=O)[O-])c3nonc23)cc1 [MB26, 4-(4-methylphenyl)sulfanyl-7-nitro-2,1,3-benzoxadiazole]
Inhibition of auxin-dependent DDR (γH2AX) (CAD): blocked the DDR
CAD-inhibitory activity against caspase-activated CAD (γH2AX) (caspase-activated CAD): CAD-inhibitory activity

COc1cc(/C=C2\CCc3ccccc3C2=O)cc(OC)c1OC [MB33, (2E)-2-[(3,4,5-trimethoxyphenyl)methylidene]-3,4-dihydronaphthalen-1-one]
Inhibition of auxin-dependent DDR (γH2AX) (CAD): blocked the DDR

COc1cc(/C=C2\CCc3ccccc3C2=O)cc(OC)c1 [MB37, (2E)-2-[(3,5-dimethoxyphenyl)methylidene]-3,4-dihydronaphthalen-1-one]
Inhibition of auxin-dependent DDR (γH2AX) (CAD): blocked the DDR

COC(=O)C[C@H](NC(=O)[C@H](C)NC(=O)[C@@H](NC(=O)OCc1ccccc1)C(C)C)C(=O)CF [zVAD-fmk] (Cbz-Val-Ala-Asp(OMe)-CH2F)
aggressive growth in vitro (migration, invasion, colony formation) (cancer cells): less aggressive growth
CIN (chromosomal missegregation) (HeLa cells): reduced CIN
numbers of MN (micronuclei) (HeLa cells): reduced
